Like-named read-outs stand apart in the source and are kept apart here.
How the values were obtained:
[1] = Stability: test compounds heated at 100° C. for 8 hours; type: physicochemical; conditions: for stability (in words): compared with the conventionally-known halides; for Changes in appearance / Percent remainder (%): heated at 100° C. for 8 hours; for Percent remainder (%): 480 min
Method: Test compounds were heated at 100° C. for 8 hours. Changes in their appearance and their percent remainders were studied.

cholera toxin = type: in vivo, SPF male Wister rats; conditions: secreta measured after 5 hours, rats
adenylate cyclase [2] = test: Inhibition of adenylate cyclase activity of splenic lymphocytes; type: biochemical; conditions: 200 nM, mice
Method: (§1) At 200 nM concentration, 13-propylberberin bisulfate inhibits about 50% of adenylate cyclase activity of intestinal epithetial cells or splenic lymphocytes in mice.

Solubility in water = type: physicochemical
adenylate cyclase [3] = test: Inhibition of adenylate cyclase activity of intestinal epithetial cells; type: biochemical; conditions: 200 nM, mice
Method: as §1

Row | SMILES | stability (in words) [1] | Changes in appearance [1] | Percent remainder (%) [1] | Solubility (Solubility in water) | other results
1 | CCCc1c2[n+](cc3c(OC)c(OC)ccc13)CCc1cc3c(cc1-2)OCO3 [13-Propylberberine bisulfate, 13-propylberberine bisulfate] | extremely stable | no changes | 100.0% | soluble | Inhibition rate (%) (cholera toxin; 0.5 mg/kg injected into ligated tract with 20 μg cholera toxin): 13.0%; Inhibition rate (%) (cholera toxin; 2 mg/kg injected into ligated tract with 20 μg cholera toxin): 40.0%; inhibition of adenylate cyclase activity (adenylate cyclase [2]): about 50%; Solubility (Solubility in water; listed as 13-propylberberine sulfate): readily soluble in water; inhibition of adenylate cyclase activity (adenylate cyclase [3]): about 50%
2 | CCCc1c2[n+](cc3c(OC)c(OC)ccc13)CCc1cc3c(cc1-2)OCO3 [13-Propylberberine bromide, 13-propylberberine bromide, reference compound] | – | – | 57.0% | – | –
3 | CCCc1c2[n+](cc3c(OC)c(OC)ccc13)CCc1cc3c(cc1-2)OCO3 [13-Propylberberine chloride, reference compound] | – | – | 48.7% | – | –
4 | CCCc1c2[n+](cc3c(OC)c(OC)ccc13)CCc1cc3c(cc1-2)OCO3 [13-Propylberberine iodide, reference compound] | – | – | 52.1% | – | –
5 | CCCc1c2[n+](cc3c(OC)c(OC)ccc13)CCc1cc3c(cc1-2)OCO3 [13-Propylberberine primary phosphate, 13-propylberberine primary phosphate] | extremely stable | no changes | 99.8% | soluble | Solubility (Solubility in water; listed as 13-propylberberine phosphate): readily soluble in water
6 | COc1ccc2cc3[n+](cc2c1OC)CCc1cc2c(cc1-3)OCO2 [Berberine chloride, reference compound] | – | – | – | – | Inhibition rate (%) (cholera toxin; 20 mg/kg injected into ligated tract with 20 μg cholera toxin): 8.0%

Source: US4761477A (priority 1984, dated 1988)
